Assay results: a melting point compilation (Tetko et al.; mined from patent text by program, amines drawn as free bases though some values may be those of a salt)

Row | SMILES | melting point
1 | C[C@@]1(C=O)S[C@@H]2CC(=O)N2[C@H]1C(=O)OC(c1ccccc1)c1ccccc1 | 112 to 113 °C
2 | O=C1OC(O)c2cccc(Cl)c21 (stereo unspecified) | 140 to 145 °C
3 | CCOc1ccc(F)cc1OCCN1C(=O)c2ccccc2C1=O | 119 to 121 °C
4 | O=C(NCCSCc1cccc(I)c1)c1c(Cl)cccc1Cl | 75 to 78 °C
5 | CCc1cc(C)c2c(-c3cccc(Br)c3)cc(=O)n(CC)c2n1 | 107 to 108 °C
6 | COc1cccc(NC(=O)C(F)(F)F)c1 | 115 °C
7 | COC(=O)c1ccc2cc(NC(=O)OC(C)(C)C)ccc2c1 | 178 to 180 °C
8 | COC(=O)CN(C=O)C1c2ccccc2CC1(C)C (stereo unspecified) | 172 to 173 °C
9 | CC(=O)NCC=C1CCc2ccc3nc(C)oc3c21 | 188 to 190 °C
10 | Clc1ccc2c3c([nH]c2c1)C1=CCCCN1CC3 | 165 °C
11 | Cc1onc(-c2ccc(-c3cscn3)cc2)c1-c1ccc(S(N)(=O)=O)c(F)c1 | 216 °C
12 | CN1CCC2(C)c3cc(O)cc(Cl)c3N(C)C12 (stereo unspecified) | 152 to 154 °C
13 | Cc1sc2c(c1C)C(c1ccc(Cl)cc1)=NC(CC(=O)Nc1ccncc1)c1nnc(C)n1-2 (stereo unspecified) | 237 to 239 °C
14 | COc1ccc(Cl)cc1NC(=O)CN1CCN(CC(=O)N2CC=C(c3cccc(C(F)(F)F)c3)n3ncc(C#N)c32)CC1 | 166 to 168 °C
15 | O=C=Nc1c2c(cc3c1CCC3)CCC2 | 40 to 41 °C
16 | CC(=O)Nc1ccccc1C(=O)NCCN1[C@H](C)Cc2ccsc2[C@@H]1C (relative stereo) | 108 to 112 °C
17 | Clc1ccc(N2CCN(Cc3cn4cc(Br)ccc4n3)CC2)cc1 | 154 to 155 °C
18 | CNc1nc(OC)c(C(=O)OC)cc1Br | 136 to 138 °C
19 | CCOC(=O)c1cn(-c2nonc2C)c2c(F)c(F)c(F)cc2c1=O | 201 to 202 °C
20 | CC(C)c1cc(-c2ccc(F)cc2)c(OCc2ccccc2)c(C(C)C)c1 | 65 to 67 °C
21 | COc1ccccc1/C=C/C(=O)Nc1cccc(NC(=N)c2ccccc2)c1 | 219 to 221 °C
22 | Nc1ncccc1OCc1cccc(Cl)c1F | 98 to 100 °C
23 | CC(C)C[C@@H]1NC(=O)O[C@H]1CCS(=O)(=O)CCc1ccccc1 | 100 to 101 °C
24 | CNC(=O)c1cc(-c2ccc(SC)cc2)nn(CC2CC2)c1=O | 116 to 118 °C
25 | O=c1oc(=O)n(-c2ccc(F)cc2)c2ccccc12 | 199 to 201 °C
26 | COc1ccc2oc(C(=O)OCC(C)(C)C(=O)C(C)(C)C)cc2c1 | 81.5 to 82.5 °C

Row | SMILES | melting point
27 | CC(=O)N1CCN(c2ccc(-c3cnc4[nH]cc(C(=O)N[C@@H](C(=O)N5CC(C#N)C5)C5CC5)c4n3)cc2)CC1 | 185 to 188 °C
28 | COc1ccc(C(=O)Nc2ccc(C3(CNC(C)=O)CC3)cc2)cc1OC | 204 to 206 °C
29 | CC(C)[C@@H](NC(=O)OCc1ccccc1)C(=O)C=[N+]=[N-] | 68 to 69 °C
30 | O=C(O)c1cn(Cc2ccc(OCc3ccccc3)cc2)nc1-c1ccccc1 | 152 to 153 °C
31 | COC(=O)C1=C(S(=O)(=O)NC(=O)Nc2nc(C)cc(OC)n2)CCC1 | 161 to 163 °C
32 | CC(C)Sc1sc(-c2nnn(C)n2)c2c1C(=O)CC(C)(C)C2 | 180 to 183 °C
33 | Oc1ccc(Nc2nncc3ccccc23)cc1 | 245 to 247 °C
34 | CCCCCCCCCCCCS(=O)(=O)Nc1cc(C(=O)Nc2ccccc2)ccc1OC | 156 to 157 °C
35 | COc1ccc(CSc2ccc([N+](=O)[O-])cc2CO)cc1 | 101 to 102 °C
36 | Nc1nc2cc(Cl)c(Cl)cc2nc1Br | 232 to 234 °C
37 | COC(=O)C1CCc2cc(C(=O)c3ccccc3Cl)c(O)cc21 (stereo unspecified) | 188 to 190 °C
38 | COc1ccc(CC2C(=O)N(Cc3ccccc3)c3ccccc3NC2C)cc1 (stereo unspecified) | 136 to 137 °C
39 | COc1ccc(OC)c2c1CC[C@](O)(C(C)=O)C2 | 117 to 120 °C
40 | COC(=O)c1ccccc1S(=O)(=O)NC(=O)n1nc(Cl)n(N(C)C)c1=O | 146 °C
41 | Cc1cnc(OCC2CN(C(C)(C)C)C(c3ccccc3)O2)c2cc(Cl)ccc12 (stereo unspecified) | 90 to 92 °C
42 | CCOC(=O)c1nc(CCl)n(-c2ccccc2C(=O)c2ccccn2)n1 | 129 to 130 °C
43 | CCN(CCO)c1ccc(I)cc1 | 53 to 54 °C
44 | COc1ccc2[nH]c(C)c(SC)c2c1 | 55 to 56.5 °C
45 | C[C@@H](Cn1ncc2ccc(OC[C@@H]3CO3)c(C=O)c21)NC(=O)OCc1ccccc1 | 90 to 92 °C
46 | CSc1[nH]cc(Cc2ccccc2)c1[N+](=O)[O-] | 190 to 192 °C
47 | CCOC(=O)C(=O)Nc1nc2ncn(C)c(=S)n2n1 | 280 to 282 °C
48 | CC(C)(C)OC(=O)N1CCC(COc2ccc(C=O)cc2)CC1 | 116 to 117 °C
49 | Cc1cc(OC(F)(F)C(F)C(F)(F)F)ccc1NC(=O)c1cccc(I)c1 (stereo unspecified) | 188 °C
50 | CS(=O)(=O)c1ccc(-c2c(-c3ccc(F)cc3)c(C(F)(F)F)nn2-c2ccccc2)cc1 | 202 to 203 °C
51 | Cc1cccc(CC(=O)c2ccnc(-c3ccc(C(=O)N4CCOCC4)cc3)c2)n1 | 106 °C
52 | COc1cc(CCCC(=O)OC(C)C)ccc1OCc1nc(-c2ccco2)oc1C | 45 to 46 °C

Row | SMILES | melting point
53 | COCc1cc(C)nc2c(OCc3ccccc3)cccc12 | 73.7 to 76.3 °C
54 | Cc1ccccc1NC(=O)C1Sc2ccccc2N(C)C1=O (stereo unspecified) | 187 to 188 °C
55 | O=C1C(Cl)=C(Cl)C(=O)c2cc(Cl)ccc21 | 148 °C
56 | Cc1ccc(-n2nc(C(C)(C)C)cc2NC(=O)NCc2ccccc2Oc2ccnc(N3CCN(C)CC3)n2)cc1 | 150 °C
57 | COc1ccc(C(NC(=O)CC2CCCC2)C2=CCc3ccccc32)c(C(=O)NS(=O)(=O)c2ccccc2C)c1 (stereo unspecified) | 227 to 228 °C
58 | CCCC[C@H](NC(=O)[C@H](CC(C)C)NC(=O)c1ccc(C(F)(F)F)cc1)C(=O)CSCc1ccco1 | 121 to 123 °C
59 | CCCCCCCCCCCCCc1nc(NC(=O)Nc2c(C(C)C)cccc2C(C)C)no1 | 99 to 101 °C
60 | CCCCCCCCCCCCOc1ccc(-c2cc3ccccc3[nH]2)cc1 | 204 °C
61 | COC(=O)C(C)Oc1ccc(COc2ccc(-n3nc(C)n(C(F)F)c3=O)c(F)c2)cc1 (stereo unspecified) | 83 to 85 °C
62 | Cc1ccc(C=Cc2ccc(N(c3ccccc3)c3ccc4c5c(cccc35)CC4)cc2)cc1 | 148 to 149 °C
63 | CNC(=O)[C@H](C)C[C@H](O)[C@H](CC1CCCCC1)NC(=O)[C@H](Cc1cscn1)NC(=O)OC(C)(C)C | 158 to 160 °C
64 | COC(=O)CCCc1cc2nc(Cl)ccc2n1S(=O)(=O)c1ccc(-c2ccccn2)cc1 | 123 to 124 °C
65 | Cn1nc2ccccc2c1C(=O)NCC1CCN(CCc2ccc(F)cc2F)CC1 | 122 to 126 °C
66 | NC(=O)c1ccnc(-c2ccc(Oc3ccc(Cl)cc3F)cc2)n1 | 198 to 200 °C
67 | Cn1nc(CC2CC2)c2sc(Cc3cccc(C(F)(F)F)c3)c(O)c2c1=O | 92 to 93 °C
68 | Cn1ccc(NC(=O)Nc2cccc3c2C2CCCCN2C3=O)n1 (stereo unspecified) | 233 °C
69 | COC(=O)c1cccc2nc(OCC(F)(F)F)n(Cc3ccc(-c4ccccc4C#N)cc3)c12 | 143 to 145 °C
70 | C[Si](C)(C)c1ccc2c(c1)C([Si](C)(C)C)([Si](C)(C)C)c1cc([Si](C)(C)C)ccc1-2 | 141 to 142 °C
71 | CC(=NO)[C@H]1C[C@H](C(=O)OC(C)(C)C)N(C(=O)CNC(=O)Nc2cccc(C(=O)O)c2)[C@@H]1c1ccccc1 (racemic) | 180 °C
72 | Cn1cc(CC(=O)O)c(OCc2ccc(OCc3csc(-c4ccccc4)n3)nc2)n1 | 156 to 157 °C
73 | CN1CCN(c2cc([N+](=O)[O-])ccc2Br)CC1 | 100 to 103 °C
74 | COc1ccc2c(c1)CCC(=COC(=O)c1ccccc1)C2=O | 128 to 130 °C
75 | O=C(c1ccc(F)cc1)N1CCC[C@H](c2nc(-c3ccc[nH]3)no2)C1 | 130 to 135 °C
76 | CCOC(=O)c1c[nH]c2cc(C(=O)NCCc3ccc(Cl)cc3)nn2c1=O | > 300 °C
77 | c1ccc2c(c1)nc(NC1CCCC1)c1nncn12 | 257 to 260 °C
78 | Cc1ccc(S(=O)(=O)NC(Cc2ccccc2)C(=O)Nc2c(F)cc(F)cc2F)cc1 (stereo unspecified) | 180 to 181 °C

Row | SMILES | melting point
79 | CCCCCCC(=N)NC(=S)Nc1ccc(Cl)cc1 | 112 to 113 °C
80 | O=C(c1ccc(-c2ccc(Cl)cc2)cc1)C(O)O | 275 to 285 °C
81 | CCOC(=O)C(=Cc1ccc(C)s1)C(=O)OCC | 53 to 56 °C
82 | CCCCCCOc1ccc2c(c1)c(CC(=O)O)c(C)n2Cc1ccc(Cl)cc1 | 148 to 150 °C
83 | Cc1cccc(Oc2cccc(NC(=O)c3ccn4c3CSC4c3cccnc3)c2)c1 (stereo unspecified) | 149 °C
84 | COc1ccc(-c2cc(=S)n(C)c(=O)[nH]2)cc1OC | 247 to 249 °C
85 | O=Cc1cc(CSc2c(Cl)cccc2Cl)ccc1O | 114 to 117 °C
86 | CCCc1nc(-c2ccc(OCCCn3ccnc3)cc2)no1 | 57 to 58 °C
87 | COCCN(C)C(=O)Nc1c(C(=O)c2ccccc2)[nH]c2cc(Cl)ccc12 | 66 to 72 °C
88 | O=S1(=O)NCN(CCF)c2ccc(I)cc21 | 156 to 158 °C
89 | Cc1cc(=O)c2cc(N)ccc2s1 | 265 °C
90 | COC(=O)C=Cc1ccc(CO)cc1 | 86 to 87 °C
91 | FC(F)(F)c1ccccc1CC[C@H]1CNCCN1 | 43 to 47 °C
92 | CC(C)CCN1C(=O)C(N)C(=O)Nc2ccccc21 (stereo unspecified) | 148 to 150 °C
93 | O=[N+]([O-])c1ccc2c(c1)OC(c1ccccc1)O2 (stereo unspecified) | 84 to 85 °C
94 | CCOC(=O)C1CC(C)CCN1C(=O)c1ccc(Cl)c(C2(C)C(=O)N(Cc3ccc(OC)cc3OC)c3ccc(Cl)cc32)c1 (stereo unspecified) | 106 °C
95 | O=[N+]([O-])c1ccc(O)c(Cl)c1Cl | 148 to 150 °C
96 | CCCCN(CC)c1nc(C)nc2c1NC(=S)CN2c1ccc(C(C)C)cc1Br | 148 to 149 °C
97 | CC(=O)C1=CCC2C3CCC4CC(O)CCC4(C)C3CCC12C (stereo unspecified) | 186 to 188 °C
98 | COCCOc1ccc(C=O)c2cc3ccccc3cc12 | 72 to 74 °C
99 | CC(C)(C)OC(=O)CN(C(=O)CCl)c1ccccc1 | 86 °C
100 | COc1cc(COc2nn(Cc3cccnc3)cc2CO)ccc1OCc1nc(-c2ccco2)oc1C | 90 to 91 °C
101 | O=C1c2ccc(Cl)cc2CC1Br (stereo unspecified) | 69 to 76 °C
